From patent EP0136831A2, “Azahomoerythromycin B derivatives and intermediates thereof” (PFIZER INC., priority 1983, dated 1985)
≈ marks a conversion by molar mass, not a printed value. Read-outs that look alike come from different tables or passages of the source.

Key:
Ent. aerog. = assay: MIC in brain heart infusion (BHI) broth; format: cell-based; conditions: strain 040
Ent. cloac. = assay: MIC in brain heart infusion (BHI) broth; format: cell-based; conditions: strain 009
Description: (§1) Generally twelve 2 fold dilutions of the test compound. are employed, with initial concentration of the test drug being in the range of 50 to 200 mcg/ml. The susceptibility (MIC) of the test organism is accepted as the lowest concentration of compound capable of producing complete inhibition of growth as judged by the naked eye.

H. influ. = assay: MIC in brain heart infusion (BHI) broth; format: cell-based
Description: as §1

Serr. mar. = assay: MIC in brain heart infusion (BHI) broth; format: cell-based; conditions: strain 017
Description: as §1

Strep. faec. = assay: MIC in brain heart infusion (BHI) broth; format: cell-based; conditions: strain 006
Description: as §1

Kleb. oxy. = assay: MIC in brain heart infusion (BHI) broth; format: cell-based; conditions: strain 024
Description: as §1

Past. mult. = assay: MIC in brain heart infusion (BHI) broth; format: cell-based; conditions: strain 001
Description: as §1

Staph. epi = assay: MIC in brain heart infusion (BHI) broth; format: cell-based; conditions: strain 111
Description: as §1

Strep. pyog. = assay: MIC in brain heart infusion (BHI) broth; format: cell-based; conditions: strain 203
Description: as §1

Staph. aur. = assay: MIC in brain heart infusion (BHI) broth; format: cell-based
Description: as §1

Neiss. sic. = assay: MIC in brain heart infusion (BHI) broth; format: cell-based; conditions: strain 000
Description: as §1

Prov. strua. = assay: MIC in brain heart infusion (BHI) broth; format: cell-based; conditions: strain 013
Description: as §1

Kleb. pn. = assay: MIC in brain heart infusion (BHI) broth; format: cell-based; conditions: for MIC: strain 009
E. coli = assay: MIC in brain heart infusion (BHI) broth; format: cell-based; conditions: Escherichia coli
[1] = Microbiological (bioassay) determination of serum levels after oral dosage; format: in vivo; conditions: mice
Method: Additionally, the compounds (II) and (VI) are tested in vivo by the well-known mouse protection test, or by a microbiological (bioassay) determination of serum levels in a variety of mammals (e.g., mouse, rat, dog).

[2] = strain 036, read-out: MIC Values
[3] = strain 038, read-out: MIC Values
[4] = strain 042, read-out: MIC Values
[5] = strain 051, read-out: MIC Values
[6] = strain 073, read-out: MIC Values
[7] = strain 078, read-out: MIC Values
[8] = strain 081, read-out: MIC Values

## CC[C@H]1OC(=O)[C@H](C)[C@@H](O[C@H]2C[C@@](C)(OC)[C@@H](O)[C@H](C)O2)[C@H](C)[C@@H](O[C@@H]2O[C@H](C)C[C@H](N(C)C)[C@H]2O)[C@](C)(O)C[C@@H](C)C(=O)[C@H](C)[C@@H](O)[C@]1(C)O [(1), Erythromycin A]
Ent. aerog.
  MIC: > 50 µg/mL
Ent. cloac.
  MIC: > 50 µg/mL
H. influ.; read-out: MIC Values, strain 012
  MIC: 3.12 µg/mL (≈ 4.25 µM)
H. influ.; read-out: MIC Values, strain 036
  MIC: 3.12 µg/mL (≈ 4.25 µM)
H. influ.; read-out: MIC Values, strain 038
  MIC: 1.56 µg/mL (≈ 2.13 µM)
H. influ.; read-out: MIC Values, strain 042
  MIC: 3.12 µg/mL (≈ 4.25 µM)
H. influ.; read-out: MIC Values, strain 051
  MIC: 3.12 µg/mL (≈ 4.25 µM)
H. influ.; read-out: MIC Values, strain 073
  MIC: 3.12 µg/mL (≈ 4.25 µM)
H. influ.; read-out: MIC Values, strain 078
  MIC: 1.56 µg/mL (≈ 2.13 µM)
H. influ.; read-out: MIC Values, strain 081
  MIC: 3.12 µg/mL (≈ 4.25 µM)
Serr. mar.
  MIC: > 50 µg/mL
Strep. faec.
  MIC: 0.39 µg/mL (≈ 0.531 µM)
Kleb. oxy.
  MIC: > 50 µg/mL
Past. mult.
  MIC: 0.78 µg/mL (≈ 1.06 µM)
Staph. epi
  MIC: 0.05 µg/mL (≈ 0.0681 µM)
Strep. pyog.
  MIC: 0.025 µg/mL (≈ 0.0341 µM)
Staph. aur.; strain 005
  MIC: 0.05 µg/mL (≈ 0.0681 µM)
Staph. aur.; strain 052
  MIC: 0.1 µg/mL (≈ 0.136 µM)
Staph. aur.; strain 400
  MIC: 6.25 µg/mL (≈ 8.52 µM)
Neiss. sic.
  MIC: 3.12 µg/mL (≈ 4.25 µM)
Prov. strua.
  MIC: > 50 µg/mL
Kleb. pn.
  MIC: > 50 µg/mL
E. coli; strain 125
  MIC: > 50 µg/mL
E. coli; strain 129
  MIC: > 50 µg/mL
E. coli; strain 266
  MIC: > 50 µg/mL
E. coli; strain 470
  MIC: 1.56 µg/mL (≈ 2.13 µM)

## CC[C@H]1OC(=O)[C@H](C)[C@@H](O[C@H]2C[C@@](C)(OC)[C@@H](O)[C@H](C)O2)[C@H](C)[C@@H](O[C@@H]2O[C@H](C)C[C@H](N(C)C)[C@H]2O)[C@](C)(O)C[C@@H](C)CN(C)[C@H](C)[C@@H](O)[C@]1(C)O [(2), 9-Deoxo-9a-methyl-9a-aza-9a-homoerythromycin A]
Ent. cloac.
  MIC: 25 µg/mL (≈ 33.4 µM)
H. influ.; [2]
  MIC: 0.78 µg/mL (≈ 1.04 µM)
H. influ.; [3]
  MIC: 0.78 µg/mL (≈ 1.04 µM)
H. influ.; [4]
  MIC: 0.78 µg/mL (≈ 1.04 µM)
H. influ.; [5]
  MIC: 1.56 µg/mL (≈ 2.08 µM)
H. influ.; [6]
  MIC: 0.78 µg/mL (≈ 1.04 µM)
H. influ.; [7]
  MIC: 0.39 µg/mL (≈ 0.521 µM)
H. influ.; [8]
  MIC: 0.78 µg/mL (≈ 1.04 µM)
Strep. faec.
  MIC: 1.56 µg/mL (≈ 2.08 µM)
Kleb. oxy.
  MIC: 25 µg/mL (≈ 33.4 µM)
Past. mult.
  MIC: 0.1 µg/mL (≈ 0.134 µM)
Staph. epi
  MIC: 0.1 µg/mL (≈ 0.134 µM)
Strep. pyog.
  MIC: 0.025 µg/mL (≈ 0.0334 µM)
Staph. aur.; strain 005
  MIC: 0.2 µg/mL (≈ 0.267 µM)
Staph. aur.; strain 052
  MIC: 0.39 µg/mL (≈ 0.521 µM)
Staph. aur.; strain 400
  MIC: 25 µg/mL (≈ 33.4 µM)
Prov. strua.
  MIC: 50 µg/mL (≈ 66.8 µM)
E. coli; strain 129
  MIC: 6.25 µg/mL (≈ 8.34 µM)
E. coli; strain 266
  MIC: 6.25 µg/mL (≈ 8.34 µM)
E. coli; strain 470
  MIC: 0.78 µg/mL (≈ 1.04 µM)

## CC[C@H]1OC(=O)[C@H](C)[C@@H](O[C@H]2C[C@@](C)(OC)[C@@H](O)[C@H](C)O2)[C@H](C)[C@@H](O[C@@H]2O[C@H](C)C[C@H](N(C)C)[C@H]2O)[C@](C)(O)C[C@@H](C)CN(C)[C@H](C)[C@@H](O)[C@H]1C [compound (II), 9-Deoxo-9a-methyl-9a-aza-9a-homoerythromycin B]
Ent. aerog.
  MIC: > 50 µg/mL
[1]
  absorption after oral dosage: exceptionally well absorbed
  serum levels: exceptionally high and long lasting
Ent. cloac.
  MIC: > 50 µg/mL
H. influ.; strain 012, read-out: MIC Values
  MIC: 1.56 µg/mL (≈ 2.13 µM)
H. influ.; [2]
  MIC: 3.12 µg/mL (≈ 4.26 µM)
H. influ.; [3]
  MIC: 3.12 µg/mL (≈ 4.26 µM)
H. influ.; [4]
  MIC: 1.56 µg/mL (≈ 2.13 µM)
H. influ.; [5]
  MIC: 3.12 µg/mL (≈ 4.26 µM)
H. influ.; [6]
  MIC: 0.2 µg/mL (≈ 0.273 µM)
H. influ.; [7]
  MIC: 0.78 µg/mL (≈ 1.06 µM)
H. influ.; [8]
  MIC: 1.56 µg/mL (≈ 2.13 µM)
Serr. mar.
  MIC: > 50 µg/mL
Strep. faec.
  MIC: 1.56 µg/mL (≈ 2.13 µM)
Kleb. oxy.
  MIC: 50 µg/mL (≈ 68.2 µM)
Past. mult.
  MIC: 0.1 µg/mL (≈ 0.136 µM)
Staph. epi
  MIC: 0.2 µg/mL (≈ 0.273 µM)
Strep. pyog.
  MIC: 0.025 µg/mL (≈ 0.0341 µM)
Staph. aur.; strain 005
  MIC: 0.39 µg/mL (≈ 0.532 µM)
Staph. aur.; strain 052
  MIC: 0.39 µg/mL (≈ 0.532 µM)
Staph. aur.; strain 400
  MIC: > 50 µg/mL
Prov. strua.
  MIC: > 50 µg/mL
Kleb. pn.
  MIC: 50 µg/mL (≈ 68.2 µM)
Kleb. pn.; strain 031
  MIC Values: 50 µg/mL (≈ 68.2 µM)
E. coli; strain 125
  MIC: 50 µg/mL (≈ 68.2 µM)
E. coli; strain 129
  MIC: 25 µg/mL (≈ 34.1 µM)
E. coli; strain 266
  MIC: 25 µg/mL (≈ 34.1 µM)
E. coli; strain 470
  MIC: 0.39 µg/mL (≈ 0.532 µM)
